In PubChem BioAssay (NCI):
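Protocol summary: plate cells (96-well), add compound at 5 concentrations, incubate 48 h, interpolate endpoints linearly. GI50 = concentration required for 50% inhibition of growth. TGI is the concentration that stops growth completely.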

How the values were obtained:
Experiment in all cases: DTP human tumour cell line panel, 48 h
786-0 renal = tested on: 786-0 renal
MOLT-4 leukemia = tested on: MOLT-4 leukemia
KM12 colon = tested on: KM12 colon
OVCAR-5 ovarian = tested on: OVCAR-5 ovarian
SNB-19 CNS = tested on: SNB-19 CNS
SK-OV-3 ovarian = tested on: SK-OV-3 ovarian
NCI-H23 lung = tested on: NCI-H23 lung
OVCAR-8 ovarian = tested on: OVCAR-8 ovarian
ACHN renal = tested on: ACHN renal
K-562 leukemia = tested on: K-562 leukemia

| SMILES | GI50 (786-0 renal) | TGI (786-0 renal) | GI50 (MOLT-4 leukemia) | TGI (MOLT-4 leukemia) | GI50 (KM12 colon) | TGI (KM12 colon) | GI50 (OVCAR-5 ovarian) | TGI (OVCAR-5 ovarian) | GI50 (SNB-19 CNS) | TGI (SNB-19 CNS) | GI50 (SK-OV-3 ovarian) | TGI (SK-OV-3 ovarian) | GI50 (NCI-H23 lung) | TGI (NCI-H23 lung) | GI50 (OVCAR-8 ovarian) | TGI (OVCAR-8 ovarian) | GI50 (ACHN renal) | TGI (ACHN renal) | GI50 (K-562 leukemia) | TGI (K-562 leukemia) |
| --- | --- | --- | --- | --- | --- | --- | --- | --- | --- | --- | --- | --- | --- | --- | --- | --- | --- | --- | --- | --- |
| Cc1cc(F)c(C(=O)Nc2cccc(-c3nncn3C(C)C)n2)cc1-n1cnc(C2CC2)c1 | 17.1 µM | > 100 µM | 10.1 µM | 54.2 µM | 20.7 µM | 95.6 µM | 19.9 µM | > 100 µM | 25.5 µM | > 100 µM | 24.5 µM | > 100 µM | 12 µM | 46.6 µM | 18.3 µM | 68 µM | 10.4 µM | 27.7 µM | – | – |
| Clc1ccc(-c2cc(-c3ccccc3)nc(N3CCN(CCCNc4ccnc5cc(Cl)ccc45)CC3)n2)cc1 | 1.47 µM | 2.84 µM | 1.22 µM | 4.35 µM | 1.68 µM | 3.2 µM | 1.66 µM | 3.08 µM | – | – | 1.74 µM | 3.17 µM | – | – | 1.15 µM | 2.93 µM | 1.61 µM | 2.96 µM | 0.461 µM | 2.31 µM |
| NC(N)=NN=c1c(=O)c2ccccc2c1=O | 19.1 µM | 33.3 µM | 1.46 µM | 3.82 µM | 3.34 µM | 10.7 µM | 17.5 µM | 32.5 µM | 1.72 µM | 3.25 µM | 19.6 µM | 33.8 µM | 1.79 µM | 3.94 µM | 10.1 µM | 22.5 µM | 6.46 µM | 19.2 µM | – | – |
| Cc1cc(S(=O)(=O)/N=C(\N)Nc2cccc(O)c2)c(SCc2ccccc2)cc1Cl | 16.9 µM | 33.5 µM | 9.06 µM | > 100 µM | 15.6 µM | 54.4 µM | 23.4 µM | 53 µM | 20.6 µM | 58.9 µM | 19.1 µM | 37.9 µM | – | – | 24.3 µM | 87.1 µM | 18.2 µM | 39.4 µM | 8.28 µM | > 100 µM |
| CC(Oc1cc2oc(=O)cc(-c3ccccc3)c2cc1Cl)C(=O)O (configuration not stated) | – | > 100 µM | – | > 100 µM | – | > 100 µM | – | – | – | > 100 µM | – | > 100 µM | – | > 100 µM | – | > 100 µM | – | > 100 µM | – | > 100 µM |
| CC1CC(C[N+](=O)[O-])CC2(C1)OCCO2 (configuration not stated) | – | > 100 µM | – | > 100 µM | – | > 100 µM | – | – | – | > 100 µM | – | > 100 µM | – | – | – | > 100 µM | – | > 100 µM | – | > 100 µM |
| CCCCC(C(=O)C(=O)Nc1ccc(C)cc1C)C(=O)C(C)C (configuration not stated) | – | > 100 µM | – | > 100 µM | – | > 100 µM | – | > 100 µM | – | > 100 µM | – | – | – | > 100 µM | – | > 100 µM | – | > 100 µM | – | > 100 µM |
| NC(CCSCC(F)(F)F)C(=O)O (configuration not stated) | – | > 100 µM | – | > 100 µM | – | > 100 µM | – | > 100 µM | – | > 100 µM | – | – | – | > 100 µM | – | > 100 µM | – | > 100 µM | – | > 100 µM |
| COc1cc(/C=C/C(=O)c2cccc3ccccc23)cc(OC)c1OC | – | 14.8 µM | – | 34.4 µM | – | – | – | 27.5 µM | – | 27.8 µM | – | 28.5 µM | – | 18.4 µM | – | 4.58 µM | – | 24.4 µM | – | 14.1 µM |
| O=C(Nc1ccc(OS(=O)(=O)c2ccc(F)cc2)cc1)C12CC3CC(CC(C3)C1)C2 | 8.33 µM | 44.5 µM | – | – | 1.15 µM | > 100 µM | 26.1 µM | > 100 µM | 15.9 µM | 74.4 µM | 10.3 µM | 47.3 µM | 10.1 µM | > 100 µM | 18.1 µM | > 100 µM | 14.6 µM | > 100 µM | 0.319 µM | > 100 µM |
| O=C(NCCCCCCCCCCCCNC(=O)c1cnc2ccccc2n1)c1cnc2ccccc2n1 | – | > 100 µM | – | > 100 µM | – | > 100 µM | – | – | – | 47.7 µM | – | 55.5 µM | – | – | – | > 100 µM | – | > 100 µM | – | > 100 µM |
| CC12Nc3ccccc3C1=C(c1ccccc1)CC1C(=O)OC(=O)C12 (configuration not stated) | – | > 100 µM | – | > 100 µM | – | > 100 µM | – | > 100 µM | – | > 100 µM | – | – | – | > 100 µM | – | > 100 µM | – | > 100 µM | – | > 100 µM |
| COc1ccc(C(c2ccccc2C(=O)O)c2ccc(OC)c3ccccc23)c2ccccc12 | – | 30.5 µM | – | 66 µM | – | 23.1 µM | – | 31.4 µM | – | 25.4 µM | – | 45.1 µM | – | – | – | 34.8 µM | – | 23.5 µM | – | > 100 µM |
| COc1ccc2[nH]c(Cl)c(/C=C3/C(=O)Nc4ccccc43)c2c1 | 0.282 µM | 0.937 µM | – | – | 0.563 µM | 3.09 µM | 0.554 µM | 3.12 µM | 0.852 µM | – | 0.865 µM | 16.9 µM | 0.219 µM | 0.688 µM | 0.498 µM | – | 0.786 µM | 5.85 µM | 0.444 µM | 13.2 µM |
| O=C1C=CC2(CCCCCCC2=O)CC1 (configuration not stated) | – | > 100 µM | – | > 100 µM | – | > 100 µM | – | > 100 µM | – | > 100 µM | – | > 100 µM | – | – | – | > 100 µM | – | > 100 µM | – | – |
| C[C@@H](O)[C@@H](C)Oc1nc(Nc2ccc(S(=N)(=O)C3CC3)cc2)ncc1C(F)(F)F (some centres not stated) | 0.0352 µM | 17.8 µM | 0.0255 µM | 0.0816 µM | 0.0242 µM | 1.16 µM | 0.033 µM | > 70.6 µM | 0.0309 µM | 43 µM | 0.0891 µM | > 100 µM | 0.0322 µM | 0.318 µM | – | – | 0.0261 µM | > 100 µM | 0.0425 µM | > 100 µM |
| CC(=O)OCCOCn1c2ccccc2c2c3c(c4c5ccccc5n(COCCOC(C)=O)c4c21)C(=O)N(Cc1ccccc1)C3=O | – | > 100 µM | – | > 100 µM | – | – | – | > 100 µM | – | > 100 µM | – | > 100 µM | – | > 100 µM | – | > 100 µM | – | > 100 µM | – | > 100 µM |
| Cc1cc2c(cc1Cl)SC(N(c1ccccc1Cl)S(=O)(=O)c1ccc(Br)s1)=NS2(=O)=O | 30 µM | > 100 µM | 15.3 µM | 42.5 µM | 25.8 µM | 83.4 µM | 60 µM | > 100 µM | 19.9 µM | 68.5 µM | 24.8 µM | > 100 µM | 19.9 µM | 56.4 µM | – | – | 22.4 µM | 84.7 µM | 18.7 µM | 54.6 µM |
